Results from patent EP0049683A2, “Imidazo-rifamycines, process for their preparation, pharmaceutical preparations containing them and their use” (CIBA-GEIGY AG, priority 1980, dated 1982).
Converted amounts (≈) assume the structure as drawn.

Tests used:
Test in all cases: Agar dilution MIC in DST agar (Ericsson and Sherris)
Format in all cases: cell-based
[1] = system: Staphylococcus aureus 2999; settings: for MIC: Staphylococcus aureus, 2999, in vitro, read-out: MIC Staph. 2999
Description: (§1) Die antibiotische Aktivität der Testverbindungen in vitro wurde durch die Agarverdünnungsmethode nach Ericsson, H.M., und Sherris, S.C., 1971, Acta Path. Microb. Scand. Section B, Suppl. No. 217, Bd. 1-90, in DST Agara ermittelt. Die gefundenen, das Wachstum der Testorganismen noch hemmenden Minimalkonzentrationen (MIC = minimum inhibiting concentrations) werden in Mikrogramm pro Milliliter (µg/ml) für die geprüften Verbindungen in der Tabelle 1 angegeben.

[2] = system: Staphylococcus aureus 10B; settings: in vitro; for MIC: Staphylococcus aureus, 10B, read-out: MIC Staph. 10B
Description: as §1

[3] = system: Proteus morganii 1518; settings: for MIC: Morganella morganii, 1518, in vitro, read-out: MIC Prot. 1518; for MIC Prot. 1518: in vitro
Description: as §1

[4] = system: Pseudomonas aeruginosa K 799/61; settings: for MIC: Pseudomonas aeruginosa, K799/61, read-out: MIC Pseu. 799; for MIC Pseu. 799: in vitro, agar dilution, DST agar
Description: as §1

[5] = system: Escherichia coli 2018; settings: for MIC: Escherichia coli, 2018, in vitro, read-out: MIC Esch. 2018; for MIC Esch. 2018: in vitro
Description: as §1

[6] = system: Escherichia coli 205; settings: for MIC: Escherichia coli, 205, in vitro, read-out: MIC Esch. 205; for MIC Esch. 205: in vitro
Description: as §1

[7] = system: Proteus morganii 2359; settings: for MIC: Morganella morganii, 2359, in vitro, read-out: MIC Prot. 2359; for MIC Prot. 2359: in vitro
Description: as §1

[8] = system: Salmonella Typhimurium 277; settings: in vitro; for MIC: Salmonella enterica, TYPHIMURIUM, read-out: MIC Salm. 277
Description: as §1

Molecule	MIC [1] [µg/mL]	MIC [2] [µg/mL]	MIC [3] [µg/mL]	MIC [4] [µg/mL]	MIC [5] [µg/mL]	MIC [6] [µg/mL]	MIC [7] [µg/mL]	MIC [8] [µg/mL]	MIC Staph. 2999 ([1]; in vitro) [µg/mL]	MIC Staph. 10B [2] [µg/mL]	MIC Prot. 1518 [3] [µg/mL]	MIC Pseu. 799 [4] [µg/mL]	MIC Esch. 205 [6] [µg/mL]	MIC Prot. 2359 [7] [µg/mL]	MIC Salm. 277 [8] [µg/mL]	MIC Esch. 2018 [5] [µg/mL]
CO[C@H]1/C=C/O[C@@]2(C)Oc3c(C)c(O)c4c(O)c(c5[nH]c(N6CCC(N7CCCCC7)CC6)nc5c4c3C2=O)NC(=O)/C(C)=C\C=C\[C@H](C)[C@H](O)[C@@H](C)[C@@H](O)[C@@H](C)[C@H](OC(C)=O)[C@@H]1C [Verbindung 24, 4-(4-Piperidino-1-piperidyl-)-imidazolo[4,5-c]rifamycin SV]	0.01 (≈ 0.0113 µM)	0.05 (≈ 0.0563 µM)	8 (≈ 9.01 µM)	16 (≈ 18 µM)	4 (≈ 4.5 µM)	8 (≈ 9.01 µM)	4 (≈ 4.5 µM)	16 (≈ 18 µM)	–	–	–	–	–	–	–	–
CO[C@H]1/C=C/O[C@@]2(C)Oc3c(C)c(O)c4c(O)c(c5[nH]c(N6CCN(CCC(C)C)CC6)nc5c4c3C2=O)NC(=O)/C(C)=C\C=C\[C@H](C)[C@H](O)[C@@H](C)[C@@H](O)[C@@H](C)[C@H](OC(C)=O)[C@@H]1C [Verbindung 40, 4-[4-(3-Methylbutyl)piperazinyl]-imidazolo[4,5-c]rifamycin SV]	0.005 (≈ 0.00571 µM)	0.005 (≈ 0.00571 µM)	8 (≈ 9.13 µM)	16 (≈ 18.3 µM)	8 (≈ 9.13 µM)	8 (≈ 9.13 µM)	8 (≈ 9.13 µM)	32 (≈ 36.5 µM)	–	–	–	–	–	–	–	–
C=CCN1CCN(c2nc3c([nH]2)c2c(O)c4c(O)c(C)c5c(c43)C(=O)[C@@](C)(O/C=C/[C@H](OC)[C@@H](C)[C@@H](OC(C)=O)[C@H](C)[C@H](O)[C@H](C)[C@@H](O)[C@@H](C)/C=C/C=C(/C)C(=O)N2)O5)CC1 [Verbindung 44, 4-(4-Allylpiperazinyl)-imidazolo[4,5-c]rifamycin SV]	–	–	8 (≈ 9.46 µM)	32 (≈ 37.8 µM)	8 (≈ 9.46 µM)	8 (≈ 9.46 µM)	8 (≈ 9.46 µM)	32 (≈ 37.8 µM)	–	–	–	–	–	–	–	–
CCN(CC)c1nc2c3c(O)c4c(O)c(C)c5c(c4c2[nH]1)C(=O)C(C)(OC=CC(OC)C(C)C(OC(C)=O)C(C)C(O)C(C)C(O)C(C)C=CC=C(C)C(=O)N3)O5 (stereo not shown) [Verbindung 6, 4-Diethylamino-imidazolo[4,5-c]rifamycin SV]	–	–	128 (≈ 161 µM)	128 (≈ 161 µM)	128 (≈ 161 µM)	128 (≈ 161 µM)	128 (≈ 161 µM)	128 (≈ 161 µM)	–	–	–	–	–	–	–	–
CCCC(C)CN1CCN(c2nc3c([nH]2)c2c(O)c4c(O)c(C)c5c(c43)C(=O)[C@@](C)(O/C=C/[C@H](OC)[C@@H](C)[C@@H](OC(C)=O)[C@H](C)[C@H](O)[C@H](C)[C@@H](O)[C@@H](C)/C=C/C=C(/C)C(=O)N2)O5)CC1 (stereo partly shown) [Verbindung 39, 4-[4-(2-Methylpentyl)-piperazinyl]-imidazolo[4,5-c]-rifamycin SV]	–	–	8 (≈ 8.99 µM)	32 (≈ 36 µM)	8 (≈ 8.99 µM)	8 (≈ 8.99 µM)	8 (≈ 8.99 µM)	32 (≈ 36 µM)	–	–	–	–	–	–	–	–
4-[4-(2-Methyl-3-phenyl-propyl)-piperazinyl]-imidazolo- [4,5-c]rifamycin SV [Verbindung 58]	–	–	–	–	–	–	–	–	0.005	0.005	16	16	16	16	32	–
4-(2,6-Dimethyl-morpholino)-imidazolo[4,5-c]rifamycin SV [Verbindung 29]	–	–	–	–	–	–	–	–	–	–	8	8	32	8	128	32
CO[C@H]1/C=C/O[C@@]2(C)Oc3c(C)c(O)c4c(O)c(c5nc(N6CCN(CC7CCCCCC7)CC6)[nH]c5c4c3C2=O)NC(=O)/C(C)=C\C=C\[C@H](C)[C@H](O)[C@@H](C)[C@@H](O)[C@@H](C)[C@H](OC(C)=O)[C@@H]1C [Verbindung 56]	–	0.005 (≈ 0.00546 µM)	8 (≈ 8.73 µM)	32 (≈ 34.9 µM)	8 (≈ 8.73 µM)	8 (≈ 8.73 µM)	8 (≈ 8.73 µM)	32 (≈ 34.9 µM)	–	–	–	–	–	–	–	–
4-(4-Isopropyloxycarbonylpiperazinyl)-imidazolo[4,5-c]-rifamycin SV [Verbindung 68]	–	–	–	–	–	–	–	–	–	0.01	8	8	32	32	32	32
4-(4-Hexylpiperazinyl)-imidazolo[4,5-c]rifamycin SV [Verbindung 35]	–	–	–	–	–	–	–	–	–	–	8	8	8	8	32	8
C=C(C)CN1CCN(c2nc3c([nH]2)c2c(O)c4c(O)c(C)c5c(c43)C(=O)[C@@](C)(O/C=C/[C@H](OC)[C@@H](C)[C@@H](OC(C)=O)[C@H](C)[C@H](O)[C@H](C)[C@@H](O)[C@@H](C)/C=C/C=C(/C)C(=O)N2)O5)CC1 [Verbindung 46, 4-[4-(2-Methyl-2-propenyl)-piperazinyl]-imidazolo[4,5-c]-rifamycin SV]	–	–	8 (≈ 9.3 µM)	32 (≈ 37.2 µM)	8 (≈ 9.3 µM)	32 (≈ 37.2 µM)	8 (≈ 9.3 µM)	32 (≈ 37.2 µM)	–	–	–	–	–	–	–	–
4-(4-Isobutyl-2-methyl-piperazinyl)-imidazolo[4,5-c]rifamycin SV [Verbindung 75]	–	–	–	–	–	–	–	–	–	0.01	2	32	8	8	32	8
CCC(C)CCN1CCN(c2nc3c([nH]2)c2c(O)c4c(O)c(C)c5c(c43)C(=O)[C@@](C)(O/C=C/[C@H](OC)[C@@H](C)[C@@H](OC(C)=O)[C@H](C)[C@H](O)[C@H](C)[C@@H](O)[C@@H](C)/C=C/C=C(/C)C(=O)N2)O5)CC1 (stereo partly shown) [Verbindung 42, 4-[4-(3-Methylpentyl)-piperazinyl]-imidazolo[4,5-c]-rifamycin SV]	–	0.005 (≈ 0.00562 µM)	8 (≈ 8.99 µM)	32 (≈ 36 µM)	8 (≈ 8.99 µM)	8 (≈ 8.99 µM)	8 (≈ 8.99 µM)	32 (≈ 36 µM)	–	–	–	–	–	–	–	–
4-(N-Butyl-N-methylamino)-imidazolo[4,5-c]rifamycin SV [Verbindung 9]	–	–	–	–	–	–	–	–	–	–	1	8	8	8	32	8
4-(4-Pentylpiperazinyl)-imidazolo[4,5-c]rifamycin SV [Verbindung 34]	–	–	–	–	–	–	–	–	–	–	8	32	8	8	32	2
4-Thiomorpholino-imidazolo[4,5-c]rifamycin SV [Verbindung 30]	–	–	–	–	–	–	–	–	–	–	8	32	8	8	32	8
CO[C@H]1/C=C/O[C@@]2(C)Oc3c(C)c(O)c4c(O)c(c5nc(N6CCN(c7ccccc7)CC6)[nH]c5c4c3C2=O)NC(=O)/C(C)=C\C=C\[C@H](C)[C@H](O)[C@@H](C)[C@@H](O)[C@@H](C)[C@H](OC(C)=O)[C@@H]1C [Verbindung 52, 4-(4-Phenylpiperazinyl)-imidazolo[4,5-c]rifamycin SV]	–	–	8 (≈ 9.07 µM)	32 (≈ 36.3 µM)	8 (≈ 9.07 µM)	32 (≈ 36.3 µM)	8 (≈ 9.07 µM)	32 (≈ 36.3 µM)	–	–	–	–	–	–	–	–
CO[C@H]1/C=C/O[C@@]2(C)Oc3c(C)c(O)c4c(O)c(c5nc(N6CCN(C7CCCCC7)CC6)[nH]c5c4c3C2=O)NC(=O)/C(C)=C\C=C\[C@H](C)[C@H](O)[C@@H](C)[C@@H](O)[C@@H](C)[C@H](OC(C)=O)[C@@H]1C [Verbindung 51, 4-(4-Cyclohexylpiperazinyl)-imidazolo[4,5-c]rifamycin SV]	–	0.01 (≈ 0.0113 µM)	8 (≈ 9.01 µM)	8 (≈ 9.01 µM)	32 (≈ 36 µM)	8 (≈ 9.01 µM)	8 (≈ 9.01 µM)	32 (≈ 36 µM)	–	–	–	–	–	–	–	–
4-[4-(1-Ethylpropyl)-piperazinyl]-imidazolo[4,5-c]rifamycin SV [Verbindung 41]	–	–	–	–	–	–	–	–	–	0.005	8	32	8	8	–	2
CO[C@H]1/C=C/O[C@@]2(C)Oc3c(C)c(O)c4c(O)c(c5[nH]c(N6CCc7ccccc76)nc5c4c3C2=O)NC(=O)/C(C)=C\C=C\[C@H](C)[C@H](O)[C@@H](C)[C@@H](O)[C@@H](C)[C@H](OC(C)=O)[C@@H]1C [Verbindung 20, 4-Indolinyl-imidazolo[4,5-c]rifamycin SV]	–	–	4 (≈ 4.77 µM)	16 (≈ 19.1 µM)	8 (≈ 9.54 µM)	8 (≈ 9.54 µM)	8 (≈ 9.54 µM)	32 (≈ 38.1 µM)	–	–	–	–	–	–	–	–
4-(4-Heptylpiperazinyl)-imidazolo[4,5-c]rifamycin SV [Verbindung 36]	–	–	–	–	–	–	–	–	–	–	8	8	2	8	32	8
